Here are results for 11 compounds from patent US20240059703A1 (AMGEN INC., priority 2021, published 2024).

KRAS G12C, sequence (P01116 other isoform, or with tags, fused parts or gaps G12C/C118A): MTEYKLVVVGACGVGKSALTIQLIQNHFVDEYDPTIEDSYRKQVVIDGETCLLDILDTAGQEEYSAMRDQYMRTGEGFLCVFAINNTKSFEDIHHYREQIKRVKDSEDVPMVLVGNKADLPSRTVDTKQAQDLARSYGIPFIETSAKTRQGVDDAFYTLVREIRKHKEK

The target in this test is KRAS G12C (Homo sapiens (Human), UniProt P01116, C118A/G12C). Description: 2 h coupled exchange assay. The class given is biochemical. As to conditions: Avg 2 h Coupled exchange IC50, 2 h compound pre-incubation. The protocol:
The term “2 h coupled exchange assay” or “20 h coupled exchange assay” as used herein refers to the assay described in the Section entitled “BIOLOGICAL EVALUATION.”
A word on the IC50: it is the concentration at which inhibition is half-maximal. Low readings indicate inhibition by little substance, high ones a need for much substance. `C=CC(=O)N1CC2(CCN(c3nc4cc(-c5ccnn5C)ccc4c(-c4cc(O)ccc4F)c3C)C2)C1` [Example 16-11, 1-(6-(4-(2-fluoro-5-hydroxyphenyl)-3-methyl-7-(1-methyl-1H-pyrazol-5-yl)-2-quinolinyl)-2,6-diazaspiro[3,4]octan-2-yl)-2-propen-1-one] showed an IC50 of 0.347 µM. Under `C=CC(=O)N1CC2(CCN(c3nc4cc(-c5ccnn5C)ccc4c(-c4cc(O)c(F)cc4F)c3C)C2)C1` [Example 16-12, 1-(6-(4-(2,4-difluoro-5-hydroxyphenyl)-3-methyl-7-(1-methyl-1H-pyrazol-5-yl)-2-quinolinyl)-2,6-diazaspiro[3.4]octan-2-yl)-2-propen-1-one] stands 0.488 µM; under `C=CC(=O)N1CC2(CCN(c3nc4cc(-c5ccnn5C)ccc4c(-c4cc(O)cc(F)c4F)c3C)C2)C1` [Example 16-13, 1-(6-(4-(2,3-difluoro-5-hydroxyphenyl)-3-methyl-7-(1-methyl-1H-pyrazol-5-yl)-2-quinolinyl)-2,6-diazaspiro[3.4]octan-2-yl)-2-propen-1-one], 0.368 µM. The value for `C=CC(=O)N1CC2(CCN(c3nc4cc(-c5ccnn5C)ccc4c(-c4cc(O)c(F)cc4Cl)c3C)C2)C1` [Example 16-14, 1-(6-(4-(2-chloro-4-fluoro-5-hydroxyphenyl)-3-methyl-7-(1-methyl-1H-pyrazol-5-yl)-2-quinolinyl)-2,6-diazaspiro[3.4]octan-2-yl)-2-propen-1-one] was 0.373 µM; that for `C=CC(=O)N1CC2(CCN(c3nc4cc(-c5ccnn5C)ccc4c(-c4ccccc4Cl)c3C#N)C2C)C1` (centres unmarked) [Example 17-1, 2-(2-acryloyl-5-methyl-2,6-diazaspiro[3.4]octan-6-yl)-4-(2-chlorophenyl)-7-(1-methyl-1H-pyrazol-5-yl)quinoline-3-carbonitrile] was 0.293 µM.

For the compound `C=CC(=O)N1CC2(CCN(c3nc4cc(-c5ccnn5C(F)F)ccc4c(-c4ccccc4Cl)c3C#N)C2)C1` [Example 17-4, 4-(2-chlorophenyl)-7-(1-(difluoromethyl)-1H-pyrazol-5-yl)-2-(2-(2-propenoyl)-2,6-diazaspiro[3.4]octan-6-yl)-3-quinolinecarbonitrile], the half-maximal inhibitory concentration (IC50) came to 0.521 µM.

The compound `C=CC(=O)N1CC2(CCN(c3nc4cc(-c5ccn[nH]5)ccc4c(-c4ccccc4Cl)c3C#N)C2)C1` [Example 17-8, 4-(2-chlorophenyl)-2-(2-(2-propenoyl)-2,6-diazaspiro[3.4]octan-6-yl)-7-(1H-pyrazol-3-yl)-3-quinolinecarbonitrile] had an IC50 of 0.571 µM. The value for `C=CC(=O)N1CC2(CCN(c3nc4cc(-c5ocnc5C)ccc4c(-c4ccccc4Cl)c3C#N)C2)C1` [Example 17-9, 4-(2-chlorophenyl)-7-(4-methyl-1,3-oxazol-5-yl)-2-(2-(2-propenoyl)-2,6-diazaspiro[3.4]octan-6-yl)-3-quinolinecarbonitrile] was 0.722 µM. As to `C=CC(=O)N1CC2(CCN(c3nc4cc(-c5ocnc5C)ccc4c(-c4ccccc4F)c3C#N)C2)C1` [Example 17-10, 4-(2-fluorophenyl)-7-(4-methyl-1,3-oxazol-5-yl)-2-(2-(2-propenoyl)-2,6-diazaspiro[3.4]octan-6-yl)-3-quinolinecarbonitrile], the half-inhibitory concentration (IC50) amounted to 0.57 µM.

Take `C=CC(=O)N1CC2(CCN(c3nc4c(c(-c5ncccc5F)c3C#N)CC[C@@H](c3scnc3C)C4)C2)C1` [Example 23-59, (7R)-4-(3-fluoro-2-pyridinyl)-7-(4-methyl-1,3-thiazol-5-yl)-2-(2-(2-propenoyl)-2,6-diazaspiro[3.4]octan-6-yl)-5,6,7,8-tetrahydro-3-quinolinecarbonitrile]: the IC50 is 0.164 µM. Under `C=CC(=O)N1CC2(CCN(c3nc4c(c(-c5cc(NS(C)(=O)=O)cc6ccccc56)c3C#N)CC(C)(C)C4)C2)C1` [Example 25-1, N-(4-(3-cyano-6,6-dimethyl-2-(2-(2-propenoyl)-2,6-diazaspiro[3.4]octan-6-yl)-6,7-dihydro-5H-cyclopenta[b]pyridin-4-yl)-2-naphthalenyl)methanesulfonamide] stands 0.45 µM.
